From patent publication US20260224557A1, “NRF2 ACTIVATOR” (Ivy Cosmetics Co., Ltd., priority 2023, published 2026)

System: Nrf2
Experiment: ARE (Antioxidant Response Element)-luciferase reporter assay in ARE-luciferase reporter-stably-expressing HaCaT cell line
Format: cell-based
Conditions: HaCaT ARE-luciferase reporter cells, 24 hours
Protocol: The Nrf2-activating action of conophylline (crystal) which was isolated and purified from Ervatamia microphylla, which is a plant of the Apocynaceae, by the method described in JP4696303B was evaluated by ARE (Antioxidant Response Element)-luciferase reporter assay, which is known as a monitoring system for the Nrf2 antioxidant pathway. Specifically, a plasmid was obtained by inserting a polynucleotide having a sequence in which ARE sequence was repeated twice ([…]: SEQ ID NO: 1) into the multiple cloning site of pNL2.2 [NlucP/Hygro] Vector (Promega Corporation), which is a vector for luciferase reporter assay, and the plasmid was introduced into HaCaT cells (DKFZ) using Cell Line Nucleofector Kit V (Lonza) by electroporation. After 24 hours, by adding hygromycin at a final concentration of 600 μg/mL and selecting drug-resistant cells, an ARE-luciferase reporter-stably-expressing HaCaT cell line having hygromycin resistance was established. […] After 24 hours, the luciferase activities were measured using Nano-Glo Luciferase Assay System (Promega Corporation) according to the protocol, and thus the Nrf2-activating action of conophylline was evaluated.

Row | Compound | luciferase activity when Nrf2 inhibitor ML-385 was added together with conophylline (ML-385 20 μM added together with conophylline 1 μg/mL) | luciferase activity (Nrf2-activating action), relative to DMSO control regarded as 1 (conophylline at various final concentrations, FIG. 1)
1 | Cc1ccccc1C(=O)N1CCc2cc(-c3nc(NC(=O)Cc4ccc5c(c4)OCO5)sc3C)ccc21 [ML-385] | decreased considerably | 
2 | CC[C@@]12CC(C(=O)OC)=C3Nc4cc5c(cc4[C@@]34CCN(C[C@H]3O[C@H]31)[C@@H]24)[C@@H]1[C@H](O5)[C@@H](O)[C@@]2(CC)CC(C(=O)OC)=C3Nc4c(cc(O)c(OC)c4OC)[C@@]34CCN1[C@@H]24 [conophylline] |  | enhanced the luciferase activity in a concentration-dependent manner
